Results on 19 compounds are retold here after patent US11584747B2, “Substituted pyridopyrimidinonyl compounds useful as T cell activators” (BRISTOL-MYERS SQUIBB COMPANY, priority 2019, dated 2023).

Assay [1] deals with T1, human DGKα (Homo sapiens (Human), UniProt P23743). Briefly: DGKα LIPGLO assay (extruded liposome substrate, ADP-Glo luminescence). Conditions: liposome assay; read-out: DGK alpha LIPGLO IC50. In kind it is biochemical. A general note: ADP-Glo turns the ADP formed in a reaction into a luminescent signal.
T1 sequence (P23743 whole entry, looked up): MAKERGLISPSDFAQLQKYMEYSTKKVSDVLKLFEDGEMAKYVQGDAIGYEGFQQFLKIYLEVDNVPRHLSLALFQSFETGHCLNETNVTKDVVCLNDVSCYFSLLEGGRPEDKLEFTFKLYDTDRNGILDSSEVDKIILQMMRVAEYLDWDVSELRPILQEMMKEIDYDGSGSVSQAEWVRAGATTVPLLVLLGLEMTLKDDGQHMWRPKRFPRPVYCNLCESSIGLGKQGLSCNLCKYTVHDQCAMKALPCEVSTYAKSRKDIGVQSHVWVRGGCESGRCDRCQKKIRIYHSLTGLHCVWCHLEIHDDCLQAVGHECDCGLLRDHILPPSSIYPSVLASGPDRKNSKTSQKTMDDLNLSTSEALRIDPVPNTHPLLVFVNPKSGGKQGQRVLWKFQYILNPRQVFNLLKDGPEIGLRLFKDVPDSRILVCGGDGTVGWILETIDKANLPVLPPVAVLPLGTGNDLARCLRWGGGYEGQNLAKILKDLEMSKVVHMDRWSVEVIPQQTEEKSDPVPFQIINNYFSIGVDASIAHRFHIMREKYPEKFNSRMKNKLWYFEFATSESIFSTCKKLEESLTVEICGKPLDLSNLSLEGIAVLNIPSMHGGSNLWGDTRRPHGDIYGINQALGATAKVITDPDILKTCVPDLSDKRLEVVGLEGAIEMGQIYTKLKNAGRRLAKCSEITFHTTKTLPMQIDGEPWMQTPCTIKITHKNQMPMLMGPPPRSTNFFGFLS
The next assay deals with human DGKζ (Homo sapiens (Human), UniProt Q13574). Briefly: DGKζ LIPGLO assay (extruded liposome substrate, ADP-Glo luminescence). In kind it is biochemical. The following applies: liposome assay; read-out: DGK zeta LIPGLO IC50.
Chain of human DGKζ (Q13574 other isoform, or with tags, fused parts or gaps): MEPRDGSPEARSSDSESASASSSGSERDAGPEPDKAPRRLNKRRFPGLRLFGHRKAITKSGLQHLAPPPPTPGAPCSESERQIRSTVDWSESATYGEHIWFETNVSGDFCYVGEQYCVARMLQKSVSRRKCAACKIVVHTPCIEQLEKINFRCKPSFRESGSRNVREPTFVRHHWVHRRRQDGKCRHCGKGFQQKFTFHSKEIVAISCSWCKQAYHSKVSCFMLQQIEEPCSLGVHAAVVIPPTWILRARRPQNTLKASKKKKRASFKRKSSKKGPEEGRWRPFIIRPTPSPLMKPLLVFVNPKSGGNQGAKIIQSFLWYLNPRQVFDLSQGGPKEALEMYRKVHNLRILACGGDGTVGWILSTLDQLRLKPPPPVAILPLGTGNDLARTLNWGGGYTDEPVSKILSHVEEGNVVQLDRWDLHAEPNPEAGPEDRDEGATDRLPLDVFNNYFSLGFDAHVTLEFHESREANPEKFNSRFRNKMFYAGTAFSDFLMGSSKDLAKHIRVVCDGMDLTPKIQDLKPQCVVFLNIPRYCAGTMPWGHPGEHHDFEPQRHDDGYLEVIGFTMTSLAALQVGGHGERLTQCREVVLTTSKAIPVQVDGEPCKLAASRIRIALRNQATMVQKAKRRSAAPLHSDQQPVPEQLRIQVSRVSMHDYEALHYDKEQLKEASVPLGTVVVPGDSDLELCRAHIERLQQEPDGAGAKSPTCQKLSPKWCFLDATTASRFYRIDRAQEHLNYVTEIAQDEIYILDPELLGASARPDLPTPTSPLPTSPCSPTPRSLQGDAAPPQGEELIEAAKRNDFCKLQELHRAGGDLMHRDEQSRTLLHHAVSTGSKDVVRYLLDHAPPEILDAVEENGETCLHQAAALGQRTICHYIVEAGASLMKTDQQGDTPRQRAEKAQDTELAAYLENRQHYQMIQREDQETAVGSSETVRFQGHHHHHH
In another assay the test system is whole blood (pERK). Briefly: pERK Whole Blood assay (Table A; no whole-blood pERK method described). The following applies: normalized. In kind it is cell-based.
The target in assay [2] is T1, human DGKα. Briefly: DGKα ADPGLO assay (detergent/lipid micelle substrate). In kind it is biochemical. The following applies: truncated DGK alpha; read-out: DGK alpha ADPGLO (Truncated) IC50. On the procedure: DGK Alpha ADPGLO (Truncated) IC50 (uM)
The detergent/lipid micelle was prepared by combining 15 g phosphatidylserine (Avanti 840035P) and 1 g diacylglycerol (8008110) and dissolving into 150 mL chloroform in a 2 L round bottom flask. Chloroform was removed under high vacuum by rotary evaporation. […] The lipid/detergent solution was split into 5 mL aliquots and stored at −80° C.

Assay [3] relates to human venous whole blood (IFN-γ). Put plainly: Human whole blood IFN-γ assay. The following applies: whole blood, normalized to 3 μM reference compound as 100% activation, read-out: IFN-γ Whole Blood Normalized EC50. In kind it is cell-based. On the procedure:
Human venous whole blood (22.5 μL per well), obtained from healthy donors, was pre-treated with compounds for one hour at 37° C. in a humidified 95% air/5% CO2 incubator. The blood was stimulated with 2.5 μL anti-human CD3 and anti-CD28 mAb at a final concentration of 1 μg/mL each for 24 hours at 37° C. IFN-γ in the supernatants was measured using AlphLISA kit (Cat #AL217).

Broadly, the IC50 is the concentration at which inhibition is half-maximal. By EC50 is commonly meant the concentration that produces a half-maximal response.

Where two headings read alike, the source gives them in different places.

As to `CCC(c1ccc(OC(F)(F)F)cc1)N1C[C@H](CC)N(c2nc(=O)n(C)c3ccc(C#N)nc23)C[C@H]1CC` (single isomer, unassigned) [Example 36], the IC50 at human DGKα [1] came to 16 nM; at human DGKζ, 75 nM; with whole blood (pERK), 250 nM; on human DGKα [2], 190 nM. The EC50 in assay [3] worked out at 82 nM.

With `CC[C@@H]1CN(c2nc(=O)n(C)c3ccc(C#N)nc23)[C@@H](C)CN1C(c1ccc(OC(F)(F)F)cc1)c1ccccn1` (single isomer, unassigned) [Example 94], the IC50 is 200 nM on human DGKα [1], 86 nM at human DGKζ, 220 nM in the assay with whole blood (pERK) and 16 nM on human DGKα [2]. In addition, the EC50 in assay [3] is 43 nM.

As to `CCC(c1ccc(OC(F)(F)F)cc1)N1C[C@H](C)N(c2nc(=O)n(C)c3ccc(C#N)nc23)C[C@H]1CC` (single isomer, unassigned) [Example 84], the IC50 at human DGKα [1] was 3220 nM; at human DGKζ it was 2090 nM; with whole blood (pERK), 780 nM; at human DGKα [2], 54 nM. In assay [3], the EC50 stood at 670 nM.

For `CCC(c1ccc(OC(F)(F)F)cc1F)N1C[C@H](C)N(c2nc(=O)n(C)c3ccc(C#N)nc23)C[C@H]1CC` (single isomer, unassigned) [Example 85], the IC50 was 210 nM on human DGKα [1], 91 nM at human DGKζ, 66 nM in the assay with whole blood (pERK) and 66 nM at human DGKα [2]. Moreover, the EC50 in assay [3] was found to be 22 nM.

As for `C[C@@H]1CN(c2nc(=O)n(C)c3ccc(C#N)nc23)[C@@H](C)CN1C(c1ccc(F)cc1)c1nc(C(C)(C)C)no1` (single isomer, unassigned) [Example 109], the IC50 at human DGKα [1] amounted to 34 nM; at human DGKζ, 190 nM; in the assay on whole blood (pERK), 48 nM. The EC50 in assay [3] worked out at 110 nM.

Consider `CC[C@H]1CN(C(C)c2ccc(C(F)(F)F)cc2)[C@H](C)CN1c1nc(=O)n(C)c2ccc(C#N)nc12` (stereo partly drawn) [Example 117, 4-((2S,5R)-2-ethyl-5-methyl-4-(1-(4-(trifluoromethyl)phenyl)ethyl)piperazin-1-yl)-1-methyl-2-oxo-1,2-dihydropyrido[3,2-d]pyrimidine-6-carbonitrile], for which the IC50 is 2 nM on human DGKα [1], 2 nM on human DGKζ and 780 nM with whole blood (pERK). Besides, the EC50 in assay [3] came to 160 nM.

With `CC(c1ccc(F)cc1F)N1C[C@H](C)N(c2nc(=O)n(C)c3ccc(C#N)nc23)C[C@H]1C` (single isomer, unassigned) [Example 145], the IC50 on human DGKα [1] came to 1130 nM; at human DGKζ, 1890 nM; in the assay on whole blood (pERK), 750 nM. The EC50 in assay [3] (Homo sapiens) worked out at 20000 nM.

For `CC(c1ccc(OC(F)(F)F)cc1)N1C[C@H](C)N(c2nc(=O)n(C)c3ccc(C#N)nc23)C[C@H]1CO` (single isomer, unassigned) [Example 183], the IC50 at human DGKα [1] is 83 nM; on human DGKζ, 2690 nM; in the assay on whole blood (pERK), 270 nM. Further, the EC50 in assay [3] stood at 2330 nM.

Consider `C[C@@H]1CN(c2nc(=O)n(C)c3ccc(C#N)nc23)[C@@H](C)CN1C(c1ccc(F)cc1)c1nc(C2CC2)no1` (single isomer, unassigned) [Example 107], for which the IC50 is 130 nM on human DGKα [1], 40 nM on human DGKζ and 120 nM with whole blood (pERK). Besides, the concentration giving a half-maximal response (EC50) in assay [3] amounted to 49 nM.

Turning to `COC[C@@H]1CN(c2nc(=O)n(C)c3ccc(C#N)nc23)[C@@H](C)CN1C(C)c1ccc(OC(F)(F)F)cc1` (single isomer, unassigned) [Example 177], the IC50 at human DGKα [1] is 610 nM; on human DGKζ it was 770 nM; in the assay on whole blood (pERK), 520 nM. The EC50 in assay [3] is 1710 nM.

For `CC[C@H]1CN(C(c2ccc(F)cc2)c2ccc(C(F)(F)F)cn2)[C@H](CC)CN1c1nc(=O)n(C)c2ccc(C#N)nc12` (single isomer, unassigned) [Example 2], the IC50 on human DGKα [1] was found to be 32 nM; at human DGKζ it was 47 nM; with whole blood (pERK) it was 150 nM. Also, in assay [3], the EC50 was 76 nM.

Consider `CC[C@@H]1CN(c2nc(=O)n(C)c3ccc(C#N)nc23)[C@@H](C)CN1C(c1ccc(F)cc1)c1ccon1` (single isomer, unassigned) [Example 73], for which the IC50 worked out at 29 nM on human DGKα [1], 140 nM on human DGKζ and 80 nM in the assay on whole blood (pERK). Moreover, the EC50 in assay [3] worked out at 22 nM.

`CC[C@@H]1CN(c2nc(=O)n(C)c3ccc(C#N)nc23)[C@@H](C)CN1C(C)c1ccc(OC(F)(F)F)cc1F` (single isomer, unassigned) [Example 81]: the IC50 at human DGKα [1] came to 300 nM; on human DGKζ, 130 nM; in the assay on whole blood (pERK), 99 nM. Besides, the EC50 in assay [3] was determined as 57 nM.

Regarding `CC[C@@H]1CN(c2nc(=O)n(C)c3ccc(C#N)nc23)[C@@H](C)CN1C(c1ccc(F)cc1)c1cc(C2CC2)on1` (single isomer, unassigned) [Example 101], the IC50 at human DGKα [1] stood at 140 nM; on human DGKζ, 66 nM; with whole blood (pERK), 250 nM. For the same compound, the EC50 in assay [3] (Homo sapiens) was 100 nM.

On to `CC[C@H]1CN(C(c2ccc(F)cc2)c2ccc(C(F)(F)F)cn2)[C@H](C)CN1c1nc(=O)n(C)c2ccc(C#N)nc12` (stereo partly drawn) [Example 115, 4-((2S,5R)-2-ethyl-4-((4-fluorophenyl)(5-(trifluoromethyl)pyridin-2-yl)methyl)-5-methylpiperazin-1-yl)-1-methyl-2-oxo-1,2-dihydropyrido[3,2-d]pyrimidine-6-carbonitrile], for which the IC50 at human DGKα [1] was 160 nM; at human DGKζ, 2470 nM; in the assay on whole blood (pERK), 520 nM. Moreover, the EC50 in assay [3] turned out to be 230 nM.

Take `CC[C@H]1CN(C(C)c2ccc(C(C)(C)C#N)cc2)[C@H](CC)CN1c1nc(=O)n(C)c2ccc(C#N)nc12` (stereo partly drawn) [Example 196, 4-((2S,5R)-4-(1-(4-(2-cyanopropan-2-yl)phenyl)ethyl)-2,5-diethylpiperazin-1-yl)-1-methyl-2-oxo-1,2-dihydropyrido[3,2-d]pyrimidine-6-carbonitrile]: the results for the IC50 on human DGKα [1], at human DGKζ and in the assay with whole blood (pERK) were 120 nM, 12 nM and 49 nM, respectively. The EC50 in assay [3] was found to be 31 nM.

For the compound `COC[C@@H]1CN(c2nc(=O)n(C)c3ccc(C#N)nc23)[C@@H](C)CN1C(C)c1ccc(OC(F)(F)F)cc1` (single isomer, unassigned) [Example 176], the IC50 at human DGKα [1] came out at 180 nM; on human DGKζ, 110 nM; with whole blood (pERK) it was 210 nM. In assay [3], the EC50 worked out at 190 nM.

As for `C[C@@H]1CN(c2nc(=O)n(C)c3ccc(C#N)nc23)[C@@H](C)CN1C(c1ccc(F)cc1)c1ccc(F)cc1` [Example 124, 4-((2S,5R)-4-(bis(4-fluorophenyl)methyl)-2,5-dimethylpiperazin-1-yl)-1-methyl-2-oxo-1,2-dihydropyrido[3,2-d]pyrimidine-6-carbonitrile], the IC50 stood at 560 nM at human DGKα [1], 2560 nM on human DGKζ and 270 nM with whole blood (pERK). In addition, the EC50 in assay [3] (Homo sapiens) is 500 nM.

As for `CC(c1ccc(OC(F)(F)F)cc1F)N1C[C@H](C)N(c2nc(=O)n(C)c3ccc(C#N)nc23)C[C@H]1C` (single isomer, unassigned) [Example 142], the IC50 was 52 nM at human DGKα [1], 230 nM on human DGKζ and 100 nM in the assay on whole blood (pERK). Moreover, the EC50 in assay [3] (Homo sapiens) was 3650 nM.
